According to publication PMC10610505, “Synthesis and Biological Evaluation of Some New 3-Aryl-2-thioxo-2,3-dihydroquinazolin-4(1H)-ones and 3-Aryl-2-(benzylthio)quinazolin-4(3H)-ones as Antioxidants; COX-2, LDHA, α-Glucosidase and α-Amylase Inhibitors; and Anti-Colon Carcinoma and Apoptosis-Inducing Agents” (Pharmaceuticals, 2023):
Where “and” joins values, the source holds several entries; their conditions need not be identical. Equal entries are not always repeated.

How the values were obtained:
[1] = test system: LoVo human colon carcinoma cells; experiment: Viability assay (LDH release), LoVo; type: cell-based
Experimental: (§1) The anticancer activities of all the synthesized compounds were assessed against two human colon carcinoma cell lines, namely LoVo and HCT-116 (Table 6), via the determination of the mean percents of the viable cancerous cells remaining after being incubated with 200 µg/mL of each test compound for 48 h using LDH assay.
(§2) The samples were diluted in Dulbecco’s Modified Eagle’s Medium, consisting of 10% fetal bovine serum (FBS), added to cells grown and cultured for 24 h in a 5% CO2-humidified incubator at 37 °C. Thereafter, the activity of lactate dehydrogenase released from damaged cells was determined in the collected supernatant aliquots using an ELISA end-point assay (Benchmark Plus, Bio-Rad, CA, USA); 0.1% Triton X-100 in the assay medium and the assay medium only were used as the positive and negative controls, respectively. Cell viability was expressed as a relative percentage of the OD values (at 550 nm) for compound-treated cells (final concentration of 200 µg /mL) and the negative control, which was shown as the mean % ± SD (n = 3). The results of the viability assays for the potential cytotoxic candidates were compared with the % of viable human umbilical vein endothelial cells (HUVEC) at the same concentration. These cells were grown in Dulbecco’s Modified Eagle’s Medium (PAN-Biotech; Barcelona, Spain) containing 10% FBS (Sigma Aldrich; St. Quentin-Fallavier, France), 2 mM Glutamine (Sigma Aldrich), 100 units/mL penicillin and […] streptomycin (Life Technologies; Paisley, UK).

[2] = test system: HCT-116 human colon carcinoma cells; experiment: Viability assay (LDH release), HCT-116; type: cell-based
Experimental: as §1, §2

[3] = Viability assay (LDH release), HUVEC; type: cell-based, human; settings: human, human umbilical vein endothelial cells (HUVEC); 200 µg/mL; read-out: Mean % of viable cells ± SD, HUVEC
Experimental: as §2

[4] = test system: non-tumoral human umbilical vein endothelial cells (HUVEC); experiment: Viability assay (LDH release), HUVEC; type: cell-based; settings: Homo sapiens, HUVEC
Experimental: as §2

[5] = DPPH radical scavenging assay; type: biochemical
Source text: In principle, the antioxidant power of a compound in this assay is correlated to its tendency to reduce the stable, purple-colored DPPH radical through a hydrogen atom transfer (HAT) mechanism and/or a single electron transfer mechanism, thereby converting it to the yellow-colored 2,2-diphenyl-1-picrylhydrazine, whereby this reduction is accompanied by a depletion in the amount of the initial DPPH radicals and a change in the absorbance of the test solution accordingly, which can be detected relative to the blank solution at λ = 517 nm.
The antioxidant potencies of all synthesized compounds were investigated using a 1,1 diphenyl-2-picrylhydrazyl (DPPH) radical scavenging assay according to the protocol described by Bersuder et al.. In brief, a 0.5 mL volume of DPPH ethanolic solution was mixed with an equal volume of each sample concentration (i.e., the test compound or butylated hydroxytoluene, BHT, which was used as the reference antioxidant in the positive control experiment), shaken strongly, and incubated at room temperature for 1 h in darkness. The absorbance of the residual DPPH radicals was measured at λ = 519 nm and compared to the negative control (without the test compound or reference antioxidant). The DPPH radical scavenging power was calculated using the following formula: scavenging efficiency (%) = (1 − Acompound/AControl) × 100, where Acompound and Acontrol are the absorbance of the tested compound and the negative control, respectively. […] Additionally, the ± SD values were calculated from three independent triplicate measurements.

[6] = target: T1, COX-2 (Homo sapiens, UniProt P35354); experiment: COX-2 inhibitory screening assay (Cayman kit); type: biochemical
T1 construct: purchased Cayman Chemical Company 701080
T1 sequence (P35354 18-604): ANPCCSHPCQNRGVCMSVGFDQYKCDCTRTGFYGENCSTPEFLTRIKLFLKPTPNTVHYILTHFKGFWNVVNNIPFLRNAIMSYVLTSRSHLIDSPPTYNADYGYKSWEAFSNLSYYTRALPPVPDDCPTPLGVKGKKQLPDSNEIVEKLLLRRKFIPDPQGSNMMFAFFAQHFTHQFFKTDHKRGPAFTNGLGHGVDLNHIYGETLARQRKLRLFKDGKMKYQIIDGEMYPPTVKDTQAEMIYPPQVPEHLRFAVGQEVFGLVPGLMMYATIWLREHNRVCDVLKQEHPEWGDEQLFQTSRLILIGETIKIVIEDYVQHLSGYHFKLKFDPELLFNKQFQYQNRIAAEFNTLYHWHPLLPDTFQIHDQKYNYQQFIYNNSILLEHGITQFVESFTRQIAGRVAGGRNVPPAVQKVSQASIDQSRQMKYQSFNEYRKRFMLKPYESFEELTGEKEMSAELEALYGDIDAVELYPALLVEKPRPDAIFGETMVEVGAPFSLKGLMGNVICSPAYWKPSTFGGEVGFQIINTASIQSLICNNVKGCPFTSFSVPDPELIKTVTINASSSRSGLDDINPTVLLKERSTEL
Experimental: Each compound of the two series, 3a–h and 5a–h, was resuspended in 100% DMSO at a final concentration of 10 mg/mL. […] Briefly, 10 µL of the tested compound was added to a mixture of the reaction buffer solution (160 µL of 0.1 M Tris-HCl, pH 8.0, in the presence of 2 mM phenol and 5 mM EDTA), COX-2 (10 µL) and heme (10 µL). After a 10 min incubation at 37 °C, the reaction was started by adding arachidonic acid (10 µL), rapidly mixed and kept at 37 °C for 2 min. PGF2α generated via PGH2 reduction with stannous chloride (30 µL) was incubated at room temperature for 5 min. The PGF2α amount was then determined via an enzyme immunoassay. Prior to incubation with the COX-2 reaction (at room temperature 18 h), the 96-well plate was previously coated with a mouse anti-rabbit monoclonal antibody. Unbound reagents were removed by washing the plate followed by adding Ellman’s reagent to the well. The reaction product displaying a distinct yellow color was measured at 410 nm using a UV microplate reader. The % inhibition was calculated by comparing the PGF2α produced in the compound-treated samples with a control sample, using the following equation: % inhibition is equal to [([PGF2α]control − [PGF2α]sample) /[PGF2α ]control ] × 100. […] The COX-2 inhibitory efficiency was expressed as an inhibition percentage, which was determined via a comparison with the negative control experiments.

[7] = target: purified recombinant human LDHA protein (Homo sapiens, UniProt P00338); experiment: Lactate dehydrogenase A (LDHA) inhibitory assay; type: biochemical
Experimental: The LDHA inhibitory effectiveness was investigated by measuring the amounts of consumed NADH [73]. […] The fluorescence of NADH, which has an excitation wavelength of 340 nm and an emission wavelength of 460 nm, was detected using a spectrofluorometer. […] The LDHA inhibitory efficiency was expressed as an inhibition percentage, which was determined via a comparison with the negative control experiments.

[8] = target: α-amylase; experiment: In vitro α-amylase (AA) inhibition assay; settings: mean ± SD of three replicates
Experimental: Then, 180 µL of Labtest (the amylase substrate) was added and the samples were incubated for 8 min, followed by measuring the first reaction at 620 nm to obtain (X1). Afterwards, the reaction mixture was incubated for an additional 5 min at 37 °C; then, the second reaction was measured to obtain the final reading (X2). […] The results were expressed as IC50 µg/mL (as well as µM) and were determined from the standard curves.

[9] = target: α-glucosidase enzyme from Saccharomyces Cerevisiae (Saccharomyces cerevisiae, UniProt P53341); experiment: In vitro α-glucosidase (AG) inhibitory activity; settings: mean ± SD of three replicates
Sequence of α-glucosidase enzyme from Saccharomyces Cerevisiae (P53341 whole entry): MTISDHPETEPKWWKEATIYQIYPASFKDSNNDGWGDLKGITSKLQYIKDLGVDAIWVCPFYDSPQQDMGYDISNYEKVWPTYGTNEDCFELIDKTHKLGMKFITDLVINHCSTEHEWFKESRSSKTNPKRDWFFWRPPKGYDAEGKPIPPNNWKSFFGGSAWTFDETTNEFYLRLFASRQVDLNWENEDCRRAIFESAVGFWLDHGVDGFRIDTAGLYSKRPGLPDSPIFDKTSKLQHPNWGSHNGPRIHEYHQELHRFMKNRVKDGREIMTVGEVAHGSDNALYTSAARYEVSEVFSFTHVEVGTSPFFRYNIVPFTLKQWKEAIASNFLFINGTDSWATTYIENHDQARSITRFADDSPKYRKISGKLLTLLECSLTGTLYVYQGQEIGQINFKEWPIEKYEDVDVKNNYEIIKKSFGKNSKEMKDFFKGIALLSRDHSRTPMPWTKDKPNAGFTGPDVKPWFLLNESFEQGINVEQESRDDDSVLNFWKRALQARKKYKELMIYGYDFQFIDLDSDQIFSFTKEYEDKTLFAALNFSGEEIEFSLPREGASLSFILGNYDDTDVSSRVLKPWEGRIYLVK
Experimental: Then, the reaction was allowed to start by adding 150 µL of the color reagent 4-NPGP and the resulting mixture was incubated for additional 15 min at 37 °C. Collectively, the colorimetric assay medium contained 2U of α-glucosidase, 5 mM of 4-NPGP and 10 mM of the potassium phosphate buffer with a pH of 6.9. […] The inhibitory efficiency of each compound was expressed as IC50 µg/mL (as well as µM), which was calculated from the corresponding calibration curve.

[10] = % inhibition at 0.200 mg/mL divided by % inhibition at 0.100 mg/mL

| IC50 ([1]; Homo sapiens, LoVo, from concentration–response curves) | IC50 ([2]; Homo sapiens, HCT-116, from concentration–response curves) | Structure (SMILES) | Selectivity index (IC50 normal cell / IC50 cell line), LoVo ([1]; HUVEC vs LoVo) | Selectivity index (IC50 normal cell / IC50 cell line), HCT-116 ([2]; HUVEC vs HCT-116) | viability at 200 µg/mL [3] | IC50 [4] | Mean IC50 for scavenging initial DPPH radicals ([5]; mean ± SD of three replicates) | IC50 ([5]; mean ± SD, converted from mg/mL, read-out: Mean IC50 for scavenging initial DPPH radicals (converted)) | Increase in COX-2 inhibitory efficiency by duplicating the concentration [6, 10] | COX-2 mean % inhibition ± SD ([6]; at 0.100 mg/mL) | COX-2 mean % inhibition ± SD ([6]; at 0.200 mg/mL) | Fold change of LDHA inhibition as compared to 0.1 mg/mL [7, 10] | LDHA mean % inhibition ± SD ([7]; at 0.1 mg/mL) | LDHA mean % inhibition ± SD ([7]; at 0.2 mg/mL) | Mean % of viable cells ± SD, LoVo ([1]; 200 µg/mL, 48 h) | Mean % of viable cells ± SD, HCT-116 ([2]; 200 µg/mL, 48 h) | Mean IC50 α-Amylase (AA) [8] | IC50 ([8]; read-out: Mean IC50 α-Amylase (AA)) | Mean IC50 α-Glucosidase (AG) [9] | IC50 ([9]; read-out: Mean IC50 α-Glucosidase (AG)) |
| --- | --- | --- | --- | --- | --- | --- | --- | --- | --- | --- | --- | --- | --- | --- | --- | --- | --- | --- | --- | --- |
| 2.91 µg/mL and 22.4 µM | 11.8 µg/mL and 91.1 µM | O=c1[nH]cc(F)c(=O)[nH]1 [Compound 5-FU, 5-Fluorouracil, reference compound] | 102.577 | 25.190 | 57.3 ± 2.52% | 298 µg/mL and 2.29 mM |  |  |  |  |  |  |  |  |  |  |  |  |  |  |
|  |  | O=c1c2cc(Cl)ccc2nc(SCc2ccc(Cl)cc2)n1-c1ccc(C(F)(F)F)cc1 [Compound 5d, 2-(4-Chloro-benzylsulfanyl)-6-chloro-3-(4-trifluoromethyl-phenyl)-3H-quinazolin-4-one] |  |  |  |  | 200 ± 28 µg/mL | 416 µM | 1.68 fold | 26.300 ± 1.839% | 44.050 ± 1.344% | 1.47 fold | 13.850 ± 2.051% | 20.400 ± 1.980% | 76.000 ± 1.732% | 86.667 ± 1.528% | 181.667 ± 5.508 µg/mL | 377 µM | 38.100 ± 0.656 µg/mL | 79.2 µM |
